In patent US20090012183A1, “Composition comprising polyphenol” (Conopco, Inc. d/b/a Unilever, priority 2007, published 2009):

Key:
rat aorta = conditions: cited from earlier work; for vasorelaxing effect: Chen and Pace Asciak, Gen. Pharmac. 27(2), 363-366 (1996)
[1] = tested on: 2nd order mesenteric artery side branches; test: Reactivity of isolated arteries: dilator effect during contraction induced by 40 mmol/L K+; parameters: species or system Spontaneously Hypertensive Rats (SHR)
Method: Segments of 2nd order mesenteric artery side branches were isolated from 14 weeks old male Spontaneously Hypertensive Rats (SHR). Two stainless-steel wires (diameter 40 μm) were inserted in the lumen of the arterial segments, which were then mounted in organ chambers between an isometric force transducer and a displacement device (Danish Myotechnology by J. P. Trading, Denmark). The organ chambers were filled with Krebs-Ringer bicarbonate solution which was maintained at 37° C. and continuously aerated with 95% O2 and 5% CO2. Before the actual experiments started, arterial segments were stretched to their individual optimal lumen diameter for mechanical performance, i.e. the diameter at which maximal contractile responses to noradrenaline ([…]) were obtained. In each experiment four second order mesenteric resistance arterial segments from one animal were mounted in individual organ chambers and studied in parallel. At the start of the experiments, all four arterial preparations were incubated during 20 min with capsaicin (1 μmol/L) to persistently desensitize sensory-motor nerves and to obtain a stable and considerable contractile response to potassium (K^+, 40 mmol/L). During all the experiments superoxide dismutase (SOD, 5 U/ml) was present, to preserve stability of the metabolites. We tested the effects of the 35 different phenolic compounds using a Plackett-Burman screening design. The experiment consisted of 5 separate saturated 8 run Plackett-burman designs. Each design contained a subset of 7 phenolic compounds (Factors): One of the compounds tested was trans-resveratrol (in this case compound 30). […] In this way, the effects of different exposure times to the mixtures (7, 30 and 90 min) on K+-induced contraction, could be evaluated. […] Effects of increasing concentrations of the solvent and of the mixes (0.1 to 100 umol/L) during contractile responses to 40 mmol/L K+, were calculated as % change of the level of pre-contraction. […]

Row | EC50 ([1]; Rattus norvegicus, isolated SHR mesenteric resistance arteries precontracted with 40 mmol/L K+, found by comparing mixtures (Plackett-Burman design), corrected for DMSO solvent, read-out: EC50 of dilation of the arteries) | SMILES | vasorelaxing effect (rat aorta) | relaxation of the rat aorta (rat aorta; Fitzpatrick et al, Am. J. physiol. 265, H774-H778, 1993) | influence on the dilation of the arteries ([1]; at a low concentration, comparison of different mixtures) | concentration at which the maximum dilatation was obtained ([1]; isolated SHR mesenteric resistance arteries precontracted with 40 mmol/L K+, mixtures tested 0.1-100 umol/L)
1 | – | O=c1c(O)c(-c2ccc(O)c(O)c2)oc2cc(O)cc(O)c12 [quercitin] | vasorelaxing effect | – | – | –
2 | – | Oc1ccc(C=Cc2cc(O)cc(O)c2)cc1 [resveratrol] | vasorelaxing effect | did not relax | – | –
3 | 11.6 µM | Oc1ccc(C=Cc2cc(O)cc(O)c2)cc1 [trans-resveratrol, 3,5,4′-trihydroxystilbene] | – | – | significant influence | 100 µM
